Columns and labels:
Format in all cases: in vivo
[1] = tested on: barnyard grass; test: Test Example 1: weedkilling efficacy, preemergent weed treatment in the submerged state; A: barnyard grass; conditions: treatment dosage 1000 g/ha
Outline: (§1)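 Visual scores against set criteria were taken 3 weeks after treatment. Compounds, as diluted emulsions at specified g/ha, went onto the water surface of 4 cm-flooded alluvial soil pots on the day weeds were sown and 2.5-leaf rice was transplanted; greenhouse held 25–30 °C.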

[2] = tested on: bulrush; test: Test Example 1: weedkilling efficacy, preemergent weed treatment in the submerged state; B: bulrush; conditions: treatment dosage 1000 g/ha
Outline: as §1

[3] = tested on: oval-leafed pondweed; test: Test Example 1: weedkilling efficacy, preemergent weed treatment in the submerged state; C: oval-leafed pondweed; conditions: treatment dosage 1000 g/ha
Outline: as §1

[4] = tested on: transplanted rice; test: Test Example 1: preemergent weed treatment in the submerged state, effect on crop; a: transplanted rice; conditions: treatment dosage 1000 g/ha
Outline: as §1

[5] = tested on: barnyard grass; test: Test Example 2: weedkilling efficacy, growth period weed treatment in the submerged state; A: barnyard grass; conditions: treatment dosage 1000 g/ha
Outline: (§2)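 Barnyard grass, bulrush and oval-leafed pondweed sown in alluvial soil under 4 cm flooding, greenhouse 25 to 30° C. At 1-2 leaf stage, water-diluted emulsion applied to the water surface at stated g/ha dosages; effects scored 3 weeks later.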

[6] = tested on: bulrush; test: Test Example 2: weedkilling efficacy, growth period weed treatment in the submerged state; B: bulrush; conditions: treatment dosage 1000 g/ha
Outline: as §2

[7] = tested on: oval-leafed pondweed; test: Test Example 2: weedkilling efficacy, growth period weed treatment in the submerged state; C: oval-leafed pondweed; conditions: treatment dosage 1000 g/ha
Outline: as §2

[8] = tested on: crabgrass; test: Test Example 3: weedkilling efficacy through soil treatment; D: crabgrass; conditions: treatment dosage 1250 g/ha
Outline: (§3)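 Crop and weed responses were judged three weeks after a uniform surface spray of the water-diluted emulsion at the given g/ha rate. Seeds sat beneath about 1.5 cm of sterilized diluvial soil, and boxes stood in a greenhouse at 25 to 30° C.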

[9] = tested on: green foxtail; test: Test Example 3: weedkilling efficacy through soil treatment; E: green foxtail; conditions: treatment dosage 1250 g/ha
Outline: as §3

[10] = tested on: wild oat; test: Test Example 3: weedkilling efficacy through soil treatment; G: wild oat; conditions: treatment dosage 1250 g/ha
Outline: as §3

[11] = tested on: black-grass; test: Test Example 3: weedkilling efficacy through soil treatment; H: black-grass; conditions: treatment dosage 1250 g/ha
Outline: as §3

[12] = tested on: Italian ryegrass; test: Test Example 3: weedkilling efficacy through soil treatment; I: Italian ryegrass; conditions: treatment dosage 1250 g/ha
Outline: as §3

[13] = tested on: Indian mallow; test: Test Example 3: weedkilling efficacy through soil treatment; K: Indian mallow; conditions: treatment dosage 1250 g/ha
Outline: as §3

[14] = tested on: redroot pigweed; test: Test Example 3: weedkilling efficacy through soil treatment; L: redroot pigweed; conditions: treatment dosage 1250 g/ha
Outline: as §3

[15] = tested on: fig-leafed goosefoot; test: Test Example 3: weedkilling efficacy through soil treatment; M: fig-leafed goosefoot; conditions: treatment dosage 1250 g/ha
Outline: as §3

[16] = tested on: chickweed; test: Test Example 3: weedkilling efficacy through soil treatment; N: chickweed; conditions: treatment dosage 1250 g/ha
Outline: as §3

[17] = tested on: catchweed; test: Test Example 3: weedkilling efficacy through soil treatment; O: catchweed; conditions: treatment dosage 1250 g/ha
Outline: as §3

[18] = tested on: birds-eye speedwell; test: Test Example 3: weedkilling efficacy through soil treatment; p: birds-eye speedwell; conditions: treatment dosage 1250 g/ha
Outline: as §3

[19] = tested on: directly sown rice; test: Test Example 3: soil treatment, effect on crop; b: directly sown rice; conditions: treatment dosage 1250 g/ha
Outline: as §3

[20] = tested on: corn; test: Test Example 3: soil treatment, effect on crop; c: corn; conditions: treatment dosage 1250 g/ha
Outline: as §3

[21] = tested on: soybean; test: Test Example 3: soil treatment, effect on crop; d: soybean; conditions: treatment dosage 1250 g/ha
Outline: as §3

[22] = tested on: wheat; test: Test Example 3: soil treatment, effect on crop; e: wheat; conditions: treatment dosage 1250 g/ha
Outline: as §3

[23] = tested on: beet; test: Test Example 3: soil treatment, effect on crop; f: beet; conditions: treatment dosage 1250 g/ha
Outline: as §3

[24] = tested on: crabgrass; test: Test Example 4: weedkilling efficacy by foliar treatment; D: crabgrass; conditions: treatment dosage 1250 g/ha
Outline: (§4)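 Seeds are spot-sown into sterilized diluvial soil and covered with about 1.5 cm of soil. After 14 days' greenhouse growth at 25 to 30° C, plants are sprayed on stems and leaves with diluted emulsion at the stated g/ha rate, then scored at 3 weeks.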

[25] = tested on: green foxtail; test: Test Example 4: weedkilling efficacy by foliar treatment; E: green foxtail; conditions: treatment dosage 1250 g/ha
Outline: as §4

[26] = tested on: wild oat; test: Test Example 4: weedkilling efficacy by foliar treatment; G: wild oat; conditions: treatment dosage 1250 g/ha
Outline: as §4

[27] = tested on: black-grass; test: Test Example 4: weedkilling efficacy by foliar treatment; H: black-grass; conditions: treatment dosage 1250 g/ha
Outline: as §4

[28] = tested on: Italian ryegrass; test: Test Example 4: weedkilling efficacy by foliar treatment; I: Italian ryegrass; conditions: treatment dosage 1250 g/ha
Outline: as §4

[29] = tested on: Indian mallow; test: Test Example 4: weedkilling efficacy by foliar treatment; K: Indian mallow; conditions: treatment dosage 1250 g/ha
Outline: as §4

[30] = tested on: redroot pigweed; test: Test Example 4: weedkilling efficacy by foliar treatment; L: redroot pigweed; conditions: treatment dosage 1250 g/ha
Outline: as §4

[31] = tested on: fig-leafed goosefoot; test: Test Example 4: weedkilling efficacy by foliar treatment; M: fig-leafed goosefoot; conditions: treatment dosage 1250 g/ha
Outline: as §4

[32] = tested on: chickweed; test: Test Example 4: weedkilling efficacy by foliar treatment; N: chickweed; conditions: treatment dosage 1250 g/ha
Outline: as §4

[33] = tested on: catchweed; test: Test Example 4: weedkilling efficacy by foliar treatment; O: catchweed; conditions: treatment dosage 1250 g/ha
Outline: as §4

[34] = tested on: birds-eye speedwell; test: Test Example 4: weedkilling efficacy by foliar treatment; p: birds-eye speedwell; conditions: treatment dosage 1250 g/ha
Outline: as §4

[35] = tested on: directly sown rice; test: Test Example 4: foliar treatment, effect on crop; b: directly sown rice; conditions: treatment dosage 1250 g/ha
Outline: as §4

[36] = tested on: corn; test: Test Example 4: foliar treatment, effect on crop; c: corn; conditions: treatment dosage 1250 g/ha
Outline: as §4

[37] = tested on: soybean; test: Test Example 4: foliar treatment, effect on crop; d: soybean; conditions: treatment dosage 1250 g/ha
Outline: as §4

[38] = tested on: wheat; test: Test Example 4: foliar treatment, effect on crop; e: wheat; conditions: treatment dosage 1250 g/ha
Outline: as §4

[39] = tested on: beet; test: Test Example 4: foliar treatment, effect on crop; f: beet; conditions: treatment dosage 1250 g/ha
Outline: as §4

`CC1=C(c2cccnc2Cl)C(=O)N(C(C)(C)C(=O)Nc2cccc(F)n2)CO1` [B-2-19] was tested, and the “A (barnyard grass) weedkilling efficacy grade” value [1] was 5 (weed kill ratio 90% or more, (practically complete withering)), the “B (bulrush) weedkilling efficacy grade” value [2] was 5 (weed kill ratio 90% or more, (practically complete withering)) and the “C (oval-leafed pondweed) weedkilling efficacy grade” value [3] was 4 (weed kill ratio 70% or more, less than 90%). The “a (transplanted rice) effect on crop grade” value [4] was 0 (weed kill ratio 5% or less (practically no effect)), the “A (barnyard grass) weedkilling efficacy grade” value [5] was 2 (weed kill ratio 20% or more, less than 40%) and the “B (bulrush) weedkilling efficacy grade” value [6] was 5 (weed kill ratio 90% or more, (practically complete withering)). For the same compound, the “C (oval-leafed pondweed) weedkilling efficacy grade” value [7] was 3 (weed kill ratio 40% or more, less than 70%), the “D (crabgrass) weedkilling efficacy grade” value [8] was 5 (weed kill ratio 90% or more, (practically complete withering)) and the “E (green foxtail) weedkilling efficacy grade” value [9] was 5 (weed kill ratio 90% or more, (practically complete withering)). For the same compound, the “G (wild oat) weedkilling efficacy grade” value [10] was 5 (weed kill ratio 90% or more, (practically complete withering)), the “H (black-grass) weedkilling efficacy grade” value [11] was 5 (weed kill ratio 90% or more, (practically complete withering)) and the “I (Italian ryegrass) weedkilling efficacy grade” value [12] was 5 (weed kill ratio 90% or more, (practically complete withering)). The “K (Indian mallow) weedkilling efficacy grade” value [13] was 0 (weed kill ratio 5% or less (practically no effect)), the “L (redroot pigweed) weedkilling efficacy grade” value [14] was 4 (weed kill ratio 70% or more, less than 90%) and the “M (fig-leafed goosefoot) weedkilling efficacy grade” value [15] was 5 (weed kill ratio 90% or more, (practically complete withering)). For the same compound, the “N (chickweed) weedkilling efficacy grade” value [16] was 4 (weed kill ratio 70% or more, less than 90%), the “O (catchweed) weedkilling efficacy grade” value [17] was 0 (weed kill ratio 5% or less (practically no effect)) and the “P (birds-eye speedwell) weedkilling efficacy grade” value [18] was 4 (weed kill ratio 70% or more, less than 90%). The “b (directly sown rice) effect on crop grade” value [19] was 4 (weed kill ratio 70% or more, less than 90%), the “c (corn) effect on crop grade” value [20] was 0 (weed kill ratio 5% or less (practically no effect)) and the “d (soybean) effect on crop grade” value [21] was 0 (weed kill ratio 5% or less (practically no effect)). The “e (wheat) effect on crop grade” value [22] was 0 (weed kill ratio 5% or less (practically no effect)), the “f (beet) effect on crop grade” value [23] was 4 (weed kill ratio 70% or more, less than 90%) and the “D (crabgrass) weedkilling efficacy grade” value [24] was 5 (weed kill ratio 90% or more, (practically complete withering)). For the same compound, the “E (green foxtail) weedkilling efficacy grade” value [25] was 5 (weed kill ratio 90% or more, (practically complete withering)), the “G (wild oat) weedkilling efficacy grade” value [26] was 3 (weed kill ratio 40% or more, less than 70%) and the “H (black-grass) weedkilling efficacy grade” value [27] was 5 (weed kill ratio 90% or more, (practically complete withering)). For the same compound, the “I (Italian ryegrass) weedkilling efficacy grade” value [28] was 4 (weed kill ratio 70% or more, less than 90%), the “K (Indian mallow) weedkilling efficacy grade” value [29] was 0 (weed kill ratio 5% or less (practically no effect)) and the “L (redroot pigweed) weedkilling efficacy grade” value [30] was 3 (weed kill ratio 40% or more, less than 70%). For the same compound, the “M (fig-leafed goosefoot) weedkilling efficacy grade” value [31] was 3 (weed kill ratio 40% or more, less than 70%), the “N (chickweed) weedkilling efficacy grade” value [32] was 3 (weed kill ratio 40% or more, less than 70%) and the “O (catchweed) weedkilling efficacy grade” value [33] was 3 (weed kill ratio 40% or more, less than 70%). The “P (birds-eye speedwell) weedkilling efficacy grade” value [34] was 5 (weed kill ratio 90% or more, (practically complete withering)), the “b (directly sown rice) effect on crop grade” value [35] was 4 (weed kill ratio 70% or more, less than 90%) and the “c (corn) effect on crop grade” value [36] was 1 (weed kill ratio 5% or more, less than 20%). For the same compound, the “d (soybean) effect on crop grade” value [37] was 1 (weed kill ratio 5% or more, less than 20%), the “e (wheat) effect on crop grade” value [38] was 0 (weed kill ratio 5% or less (practically no effect)) and the “f (beet) effect on crop grade” value [39] was 3 (weed kill ratio 40% or more, less than 70%).

— patent US9738634B2, “Heterocyclic amide compound and herbicide” (SYNGENTA PARTICIPATIONS AG, priority 2013, dated 2017)
